Results published in patent publication US20030149235A1, “Targeting peptides” (priority 2000, published 2003).
“Also recorded” adds a separate entry of the source. Non-standard residues stand in square brackets, D forms with d. Residues, ends and D or L forms follow the SMILES beside them. *: point of attachment. Nle = CCCC[C@H](N)C(=O)O; Cbz = O=C(OCc1ccccc1)*

Assays:
[1] = tested on: HUVEC; assay: wtAAVegfp transduction, eGFP fluorimetry; assay type: cell-based, human; details: 250 transduction units/cell, 40 μM LLnL, 4 μM mg132, 5 μg/ml aphidicolin, 10 μM etoposide
Source text: FIG. 6 illustrates the efficiency of AAV-mediated gene transfer to ECs. (A) HUVEC and HeLa cells were mock infected (open bars) or infected with 1000 transduction units/cell of wtAAVegfp (filled bars) and analyzed for eGFP expression by fluorimetry and fluorescence microscopy. (B) ECs were infected with 250 transduction units/cell wtMVegfp in the presence or absence of mg132, LLnL, genistein, hydroxyurea, aphidicolin, etoposide, or camptothecin and harvested for quantification of eGFP by fluorimetry at either 24 h or 96 h postinfection. RFU, relative fluorescent units. *Indicates statistical significance from wtMVegfp alone at the same time point. Representative of three independent experiments;
Cells were plated to reach 80% confluence 24 h later. In each case an accurate cell count was performed immediately before infection. Cells were infected with increasing doses of AAV vectors in the presence or absence of helper adenovirus (Ad) as indicated. For each cell type, Ad co-infection was performed at a dose that mediated 70% transduction, based on prior infection efficiency experiments performed on each cell type using a LacZ-expressing Ad, RAd35. At the required time point, cells were washed and lysed in 0.2% Triton X-100 in PBS and stored at −20° C. For dissection of AAV transduction of EC, cells were incubated with AAV in the absence or presence of 40 μM LLnL, 4 μM mg132, 50 μM genistein, 40 mM hydroxyurea, 5 μg/ml aphidicolin, 10 μM etoposide, 0.1 μM camptothecin or 150 nM bafilomycin A2.
Cells were infected as indicated above in the absence or presence of 1 IU heparin/[…] genomic particles and analyzed for gene expression 72 h later. In addition a column assay was carried out. AAVwt or AAVsig were loaded onto heparin columns (immobilized on cross-linked 4% beaded agarose; Sigma) that had been prepacked and equilibrated according to the manufacturer's recommendations. Purified viral preparations (6.4×10^11 particles) in 200 μl were loaded, and the flow-through, wash, and 1 M NaCl eluates were collected and analyzed by dot-blot hybridization using twofold serial dilutions. For quantification of wtAAVegfp-mediated gene transfer to vascular EC, aliquots of cell extracts were analyzed in triplicate for eGFP expression using a Wallac Victor2 multi-counter with recombinant eGFP (Clontech, Basingstoke, Hants., UK) as a standard. All data were analyzed as eGFP relative light units (RFU)/mg protein. For analysis of AAVsig and AAVwtdriven lacZ expression, aliquots of cell extracts were analyzed for beta-galactosidase expression using Galacto-Light Plus (Tropix, Mass., U.S.A.) as per manufacturer's recommendations using recombinant beta-galactosidase (Sigma, UK) as a standard. All data were expressed as RLU/mg protein.

[2] = tested on: HEC; details: peptide fused to an antibody against the Ad5 fiber knob; reference [47]; cited from earlier work
[3] = tested on: VSMC; assay: Binding of homogenous candidate phage to cells; parameters: species or system human
Protocol: (§1) 10^7 pfu of homogenous phage populations containing candidate peptides were panned on human endothelial cells (HEC), vascular smooth muscle cells (VSMC) and HepG2 hepatocytes, binding from a control peptide-less phage, subtracted and recovery calculated and expressed as a percentage of HEC;
(§2) Phage libraries were amplified, purified and titered according to manufacturers protocols. HEC were plated into 6 well plates and cultured until 2 days post-confluence. 1×10^9 pfu of input phage library was used to pan confluent cultures of HEC (passage 2-4) in triplicate. First we used a direct screening approach and biopanned HEC for 4 rounds. Second we biopanned on HEC after biopanning for 1 hour on 2 successive cultures of VSMC, HepG2 and peripheral blood mononuclear cells (pre-clearing steps). Prior to biopanning growth media was changed to 1 ml DMEM containing 1% bovine serum albumin (BSA) and the plates were incubated at 4° C. for 15 minutes. For HEC, 1×10^9 pfu of pre-cleared or stock phage library was incubated with cells for 1 hour at 4° C. Cells were washed 5 times in ice-cold PBS/1% BSA for 5 minutes per wash. Weakly associated phage were eluted in 1 ml 0.2 M glycine (pH 2.2) for 10 minutes on ice, followed by neutralisation with 200 μl Tris-HCl (pH 8.0). High affinity phage (tightly-bound phage) were isolated by lysing the cells in 1 ml of 30 mM Tris-HCL/1 mM EDTA (pH 8.0) for 1 hour on ice. Cell debris was removed and the supernatant recovered. Phage were amplified and titered between each round to ensure that 10^9 pfu of input phage were used at the start of each successive round. Following completion of biopanning, E. coli ER2537 were infected with the resulting phage, plated and individual plaques picked, amplified, and sequenced. For further binding studies, high titer homogenous populations of each phage were prepared. Briefly, 1×10^7 pfu of each phage were biopanned on HEC, VSMC and HepG2 cells for 30 minutes at 4° C. […] The percentage recovery was calculated for each cell type using a peptide-less phage to allow for background binding.

[4] = tested on: HEC; assay: Binding of homogenous candidate phage to cells; parameters: species or system human; details: 10^7 pfu
Protocol: as §1, §2

[5] = tested on: HepG2 hepatocytes; assay: Binding of homogenous candidate phage to cells; parameters: species or system human
Protocol: as §1, §2

Compound	effect of agent on wtAAVegfp reporter gene expression versus infection without treatment [1]	other results
C[C@@]1(CO)[C@H](O)CC[C@@]2(C)[C@H]1CC[C@H]1C[C@@H]3C[C@@]12CC[C@]3(O)CO [aphidicolin]	enhanced	–
CC(C)C[C@@H](C=O)NC(=O)[C@H](CC(C)C)NC(=O)[C@H](CC(C)C)NC(=O)OCc1ccccc1 [mg132] (Cbz-Leu-Leu-Leu-aldehyde)	increase	–
CCCC[C@@H](C=O)NC(=O)[C@H](CC(C)C)NC(=O)[C@H](CC(C)C)NC(C)=O [LLnL] (Ac-Leu-Leu-[Nle]-aldehyde)	increase	–
COc1cc([C@@H]2c3cc4c(cc3[C@@H](O[C@@H]3O[C@@H]5CO[C@@H](C)O[C@H]5[C@H](O)[C@H]3O)[C@H]3COC(=O)[C@H]23)OCO4)cc(OC)c1O [etoposide]	enhanced	–
SIGYPLP	–	adenoviral gene transfer into human EC versus non-targeted Ad [2]: 15 fold; binding to VSMC compared to HEC [3]: limited binding; also recorded: low-level affinity; binding to HEC [4]: high-level binding; binding to HepG2 hepatocytes compared to HEC [5]: limited binding; also recorded: low-level affinity
